Target: T1, Acetylcholinesterase (Mus musculus, UniProt P21836)
T1 sequence (P21836 whole entry): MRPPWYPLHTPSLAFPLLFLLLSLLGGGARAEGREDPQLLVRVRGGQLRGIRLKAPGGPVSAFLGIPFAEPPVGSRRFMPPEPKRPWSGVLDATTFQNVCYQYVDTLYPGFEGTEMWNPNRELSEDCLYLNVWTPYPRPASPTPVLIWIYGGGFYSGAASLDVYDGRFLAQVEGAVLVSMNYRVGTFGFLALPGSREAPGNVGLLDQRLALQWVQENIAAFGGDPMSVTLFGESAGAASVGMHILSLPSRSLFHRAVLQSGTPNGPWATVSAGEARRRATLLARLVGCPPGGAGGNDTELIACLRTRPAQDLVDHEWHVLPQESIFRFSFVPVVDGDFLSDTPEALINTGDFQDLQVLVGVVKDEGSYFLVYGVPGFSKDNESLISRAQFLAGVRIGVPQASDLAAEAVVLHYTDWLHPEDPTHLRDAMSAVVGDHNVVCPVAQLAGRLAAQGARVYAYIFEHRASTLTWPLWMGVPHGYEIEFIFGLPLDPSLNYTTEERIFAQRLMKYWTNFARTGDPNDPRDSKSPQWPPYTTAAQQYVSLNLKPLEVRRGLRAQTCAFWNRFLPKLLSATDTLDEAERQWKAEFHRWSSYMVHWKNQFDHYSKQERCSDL
Test: AChE Assay
Conditions: pH 7.6; 20 °C
Procedure: The inactivation of AChEs was determined using a colorimetric assay [Ellman et al., Biochem. Pharmacol., 7:88-95]. […] DTNB solution and a solution of AChE yielding a 0.1 Abs unit/min rate in PBS (2.80 mL; pH 7.6) were placed in a cuvette at 20°C. To this solution was added either: (a) 10 μL of ACN as the control, or (b) 10 μL of ligand solution (10 mM in ACN). […] The final concentrations of the reactants during enzyme assay were: 0.33 mM DTNB, 0.59 mM ATCh-I, 0.58 mM NaHCO3, and 0.05 mM inhibitor.

Row | Compound | IC50
1 | C#CCNS(=O)(=O)c1ccc(-c2c3ccc(=[N+](CC)CC)cc-3oc3cc(N(CC)CC)ccc23)c(S(=O)(=O)[O-])c1 [Lissamine propargyl sulfonamide (6)] | 50 nM
2 | C#CCNS(=O)(=O)c1ccc(C2=c3cc4c5c(c3Oc3c2cc2c6c3CCCN6CCC2)CCC[N+]=5CCC4)c(S(=O)(=O)[O-])c1 [Texas Red propargyl sulfonamide (7)] | 700 nM

From BindingDB's records for doi:10.3109/14756360903027816 (The University of Montana, 2010)
